Assay results published in publication PMC4268712, “Steroidal and non-steroidal third-generation aromatase inhibitors induce pain-like symptoms via TRPA1” (Nature Communications, 2014).

How the values were obtained:
[1] = molecular target: T1, transient receptor potential ankyrin 1 (TRPA1) (Homo sapiens, UniProt O75762); test: calcium imaging (and whole-cell patch clamp) in hTRPA1-HEK293 cells, blocked by HC-030031, absent in untransfected cells; format: cell-based
[2] = molecular target: T1, transient receptor potential ankyrin 1 (TRPA1); test: calcium imaging in HEK293 cells transfected with wild-type hTRPA1 ([…]); format: cell-based

T1 sequence (O75762 whole entry): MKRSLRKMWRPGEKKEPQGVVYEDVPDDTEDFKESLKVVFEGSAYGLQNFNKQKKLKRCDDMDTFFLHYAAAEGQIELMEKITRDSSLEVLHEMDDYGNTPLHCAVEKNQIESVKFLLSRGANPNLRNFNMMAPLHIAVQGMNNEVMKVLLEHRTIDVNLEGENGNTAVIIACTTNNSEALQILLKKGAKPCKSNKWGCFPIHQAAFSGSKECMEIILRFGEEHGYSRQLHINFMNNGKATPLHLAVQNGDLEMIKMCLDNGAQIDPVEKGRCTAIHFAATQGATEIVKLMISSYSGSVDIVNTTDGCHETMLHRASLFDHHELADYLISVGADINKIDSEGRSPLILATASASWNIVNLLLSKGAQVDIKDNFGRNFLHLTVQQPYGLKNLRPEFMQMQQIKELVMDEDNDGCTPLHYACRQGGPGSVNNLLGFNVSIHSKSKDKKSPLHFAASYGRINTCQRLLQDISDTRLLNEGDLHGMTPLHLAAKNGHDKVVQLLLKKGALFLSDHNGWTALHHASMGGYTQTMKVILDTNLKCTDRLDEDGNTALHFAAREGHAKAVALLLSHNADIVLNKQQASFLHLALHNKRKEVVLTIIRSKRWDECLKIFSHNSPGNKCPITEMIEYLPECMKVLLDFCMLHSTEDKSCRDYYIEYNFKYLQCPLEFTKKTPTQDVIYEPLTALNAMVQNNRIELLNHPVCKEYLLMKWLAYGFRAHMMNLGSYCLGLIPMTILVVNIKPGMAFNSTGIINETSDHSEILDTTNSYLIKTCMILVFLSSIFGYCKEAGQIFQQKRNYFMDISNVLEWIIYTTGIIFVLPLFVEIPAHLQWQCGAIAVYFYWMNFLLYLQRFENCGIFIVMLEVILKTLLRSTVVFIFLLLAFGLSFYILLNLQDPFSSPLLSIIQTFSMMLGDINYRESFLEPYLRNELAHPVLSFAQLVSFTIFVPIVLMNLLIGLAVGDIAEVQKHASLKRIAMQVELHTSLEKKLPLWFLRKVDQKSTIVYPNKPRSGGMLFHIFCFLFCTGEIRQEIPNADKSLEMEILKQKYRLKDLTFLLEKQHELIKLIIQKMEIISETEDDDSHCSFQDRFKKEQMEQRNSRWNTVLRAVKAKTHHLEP

Row | Compound | EC50 [1] | calcium imaging in HEK293 cells transfected with wild-type hTRPA1 (100 μM) [2]
1 | N#Cc1ccc(C(c2ccc(C#N)cc2)n2cncn2)cc1 [LTZ, letrozole] | 69 µM | 
2 | C=C1C[C@@H]2[C@H](CC[C@]3(C)C(=O)CC[C@@H]23)[C@@]2(C)C=CC(=O)C=C12 [EXE, exemestane] | 58 µM | 
3 | CC(C)(C#N)c1cc(Cn2cncn2)cc(C(C)(C)C#N)c1 [ANA, anastrozole] | 134 µM | 
4 | CC1CCC(C(C)C)C(O)C1 (stereo not shown) [menthol] |  | HEK293 cells transfected with the cDNA codifying for wild-type hTRPA1 (WT) respond to all the drugs
